Test results as given in patent US20250108088A1, “REGENERATIVE PEPTIDES AND METHODS FOR USE THEREOF” (priority 2023, published 2025).
Entries after “also recorded” stand apart in the source; their conditions may differ.

Legend:
[1] = system: Acinetobacter baumannii ATCC 196062; experiment: Diffusion agar plate method, zone of inhibition; type: cell-based; details: 62.5 μg/ml to 1000 μg/ml; FIG. 5, FIG. 10
Protocol: (§1) Cell culture: Cultures of each bacterial strain were prepared by inoculating on Muller Hinton Agar (MHA) medium. After overnight incubation at 37° C., the density of the bacterial cells was compared to the McFarland turbidity standard (0.5).
(§2) Plates were swabbed with McFarland 0.5 inoculum of each test bacteria. […] serial dilutions of the peptides were prepared and 20 μl of compound were dropped onto the MHA. Antibiotic disc served as a positive control and vehicle alone served as the negative control. Plates were incubated for 16-18 hours and assessed for antibacterial activity. Zones of inhibition were measured for each TA dilution and compared with the controls.

[2] = system: Streptococcus pneumoniae DCC1335; experiment: Diffusion agar plate method, zone of inhibition; type: cell-based; details: 62.5 μg/ml to 1000 μg/ml; FIG. 10
Protocol: as §1, §2

skin after dermabrasion [3] = experiment: Clinical study, Visioscan skin smoothness after dermabrasion; type: in vivo, human; details: 8, 24, 48 and 72 hours after dermabrasion; vehicle cream base
Protocol: (§3) To determine the effects of exemplary peptides p1-p9 on tissue healing, a clinical study was performed that assessed transepidermal water loss (TEWL) and skin smoothness after dermabrasion.
(§4) This exemplary vehicle cream has a pH of 5.0, no odor and is white in color.
After 8 hours (T8h) of first product application, the subjects returned to the Institute, acclimated for 15 minutes and new Vapometer® to measure TEWL and Visioscan® VC 20Plus to measure skin smoothness was performed. After 1 (T1d), 2 (T2d) and 3 (T3d) days the subjects returned to the Institute, acclimated for 15 minutes and new measurements were performed. At time-points T1d and T2d new product application was performed by the technician on each test site. A total of 49 study subjects were included in the study and a total of 41 completed the study. The study included post-menopausal female subjects, aged between 50 and 65 years old (mean age: 59 years old), presenting Fitzpatrick Skin Types II-V.
Skin texture images were performed using the Visioscan® VC 20Plus, which allows taking pictures of the skin through magnifying lenses. The images enable a view of the skin topography, texture, dryness, desquamation, blemishes, pores, and cuticles.

skin post-dermabrasion = experiment: Clinical study, erythema (Chromameter a* value) post-dermabrasion; type: in vivo, human; details: 4 hours and 12 hours after application
Protocol: To determine the effects of the peptides on skin redness, the peptides P2, P3, and the combination of P2+P3 were tested at different concentration levels and subject's skin redness (erythema) was measured post-dermabrasion and 2, 4, 8, 12, 24, 48 and 72 hours post-application. The subjects were 30 post-menopausal female subjects, aged 50-65 years or younger, if post-menopausal. Enrolled subjects were to have Fitzpatrick Skin Types II-V. At baseline (post-dermabrasion) and 2, 4, 8, 12, 24, 48 and 72 hours post-application, skin redness was measured on 4 skin sites using the Chromameter® (Konica Minolta, Ramsey NJ). In order to determine any changes in skin redness, the a* value was analyzed. The a* value measures redness/erythema in the skin. A decrease in the a* value corresponded to a whitening/improvement (less red) effect and an increase in the a*value represented a darkening/worsening (redder) effect

skin after dermabrasion [4] = experiment: Clinical study, transepidermal water loss (TEWL, Vapometer) after dermabrasion; type: in vivo, human; details: 8, 24, 48 hours, vehicle cream base
Protocol: as §3, §4
After 8 hours (T8h) of first product application, the subjects returned to the Institute, acclimated for 15 minutes and new Vapometer® to measure TEWL and Visioscan® VC 20Plus to measure skin smoothness was performed. After 1 (T1d), 2 (T2d) and 3 (T3d) days the subjects returned to the Institute, acclimated for 15 minutes and new measurements were performed. At time-points T1d and T2d new product application was performed by the technician on each test site. A total of 49 study subjects were included in the study and a total of 41 completed the study. […]
The TEWL measurements were performed by using the Vapometer® device through a measurement probe. The readings were taken by applying the probe to the test sites, by resting it against the skin.
The measurements principle is diffusion, which indicates the mass of water per cm^2 that is transported in a given period of time, that is, the reading indicates the degree of water evaporation on the skin surface based on the sensitivity of hygro-sensors. The scale used is g/h/m^2, in which greater values of reading indicate higher evaporation. […]

[5] = system: Normal human dermal fibroblasts (HNDF); experiment: Myofibroblast transition assay (MFT), aSMA immunofluorescence; type: cell-based
From the text: The myofibroblast transition (MFT) assay determines the effect of the peptide on inhibiting the transition of fibroblasts to myofibroblasts. The extracellular matrix produced by myofibroblasts may be produced in excess and may not be remodeled during tissue healing, leaving behind the fibrous connective tissue that forms a scar. Thus, the ability to regulate the degree of MFT may enable control of scarring. To determine if the peptides provided herein affect MFT, the following assay was performed.
Normal human dermal fibroblasts (HNDF) were cultured in high glucose Dulbecco's modified eagle medium (DMEM) supplemented with 10% fetal bovine serum (FBS) and 5 ml of 10,000 units of penicillin/streptomycin. Cells were cultured on 10 cm plates with media changes every 2 days. Cells were passaged in 0.25% Trypsin/EDTA after achieving 80% confluency.
To induce myofibroblast transition (MFT), normal human dermal fibroblasts (HNDFs) were split from 1-10 cm plates to 5-96 well plates. Cells were then allowed to grow the next day. The following day, cells were serum starved (1% FBS in DMEM) for 4 hours prior to adding 20 ng/ml of TGF-Beta to all wells of the plate. 1000 μM of Vactosertib (TEW-7197/EW-7197) was added to serve as a positive control and different concentrations of peptides were added to serve as the test articles. The cells were then exposed to the compounds for 5 more days before fixation.
The cells were fixed in paraformaldehyde (PFA) for 10-15 minutes, then washed 2× in PBS. Cells were blocked in 4% BSA for 30 minutes at 23° C. Cells were stained with the primary alpha-smooth muscle actin (aSMA) antibody (1:100) for 1 hour at 23° C. or left out at 4° C. overnight. Cells were rinsed 2× with BSA and then the secondary antibody mix was added: Alexa 488 (1:500) and DAPI (1:1000) for 30 min at 23° C. or 1 hr at 4° C. The plates were covered during staining, then rinsed 2× in BSA and stored in PBS.
Plates were imaged using the Celigo Imaging Cytometer by Nexcelcom. The ratio of fluorescent expression of alpha-smooth muscle actin (aSMA) and DAPI were quantified to determine the amount of aSMA/cell.
The change (normalized to the control) in MFT for each concentration is shown along with the p value for all experiments relative to the control of no peptide.

[6] = system: Acinetobacter baumannii ATCC 196062; experiment: Broth microdilution method (MIC50/MIC90); type: cell-based; details: FIG. 11
Protocol: as §1
Ten-fold serial dilution of the peptide along with controls were prepared in Mueller Hinton Broth (MHB) media in a total volume of 50 μl in 96 well plates. Additionally, 50 μl of the diluted standard inoculum (1:150 in MHB media) were added to each of the well plates. The plates were read at OD600 nm. MIC50 and MIC90 curves were calculated from the plate readout. Each sample was run in duplicate.

| Substance | agar zone of inhibition, inhibiting bacterial growth [1] | agar zone of inhibition, inhibiting bacterial growth [2] | skin smoothness (Visioscan) (skin after dermabrasion [3]) | skin redness (erythema), a* value (skin post-dermabrasion) | TEWL, skin barrier restoration (skin after dermabrasion [4]) | Myofibroblast transition (MFT), aSMA/cell, % change relative to control ([5]; 1000 ng/ml peptide, N = 3, TGF-Beta induced HNDF, control of no peptide) [%] | MFT, Representative value from experiments (% change relative to control) ([5]; most effective significant concentration of 10, 100, 1000 ng/ml, N = 3) | aSMA decrease relative to the control (fluorescence, FIG. 3) ([5]; negative control of no peptide) [%] | MIC50 and MIC90, inhibiting bacterial growth in broth [6] |
| --- | --- | --- | --- | --- | --- | --- | --- | --- | --- |
| GFWDIL WHIPHTIKG (GFWDILWHIPHTIKG) [MBdol15] | effective | effective |  |  |  |  |  |  |  |
| QRLLEAQAAT [Peptide P2] |  |  | visible; also recorded: most promising skin smoothness results | significantly improved erythema; also recorded: improve skin redness | most promising TEWL assay results; also recorded: most promising results in skin barrier restoration |  |  |  |  |
| SKPAKAPE [Peptide P3] |  |  | visible; also recorded: most promising skin smoothness results | significantly improved erythema; also recorded: improve skin redness | most promising TEWL assay results; also recorded: most promising results in skin barrier restoration | −0.4914 | −0.4914 p = (0.006) % | 49 |  |
| SLSRTLWAWLPRPCKSN [MBdol20] | effective | effective |  |  |  |  |  |  | most effective |
| TFMSHLFCCVQKRCDCSF [MBdol23] | effective | effective |  |  |  |  |  |  |  |
